# Test results reported in patent publication US20250177381A1 (SHANGHAI YONSUN BIOTECHNOLOGY CO., LTD., priority 2022, published 2025).
# Where a name gives a salt, the structure may show the parent alone. Read-outs that look alike come from different tables or passages of the source.
# What was measured:
# Type in all cases: physicochemical
# [1] = Hydrochloride dissociation study (XRPD of residues); details: aqueous media of pH 6, pH 7, pH 7.4, pH 8, pH 9; shaken at 37° C. for 4 h
# Experimental: The mixtures were shaken at 37° C. for 4 h and centrifuged.
# [2] = Solubility in media with different pH values; details: shaken 24 h; for Solubility pH 3 / Solubility pH 5 / Solubility pH 4 / Solubility pH 6: acetate buffer; for Solubility pH 3 / Solubility pH 5 / Solubility Water / Solubility pH 4 / Solubility pH 6 / Solubility pH 7 / Solubility pH 7.4 / Solubility pH 8 / Solubility pH 9: 37° C.; for solubility at 24 h / Solubility pH 7 / Solubility pH 7.4 / Solubility pH 8 / Solubility pH 9: phosphate buffer; for solubility at 24 h: 37 °C, thermodynamic from solid
# Experimental: The mixtures were shaken at 37° C. for 24 h and filtered through a 0.45 μm aqueous-phase filter membranes. The filtrates were collected for solubility determination by high performance liquid chromatography. pH 3, pH 4, pH5 and pH 6 represent acetate buffer solutions, and pH 7, pH 7.4, pH 8 and pH 9 represent phosphate buffer solutions.
# [3] = Crystal form stability of solid salt forms (XRPD); details: 60° C., Day 10, listed as crystal form A of cariprazine mono-1-hydroxy-2-naphthoate dihydrate
# Experimental: (4) The XRPD measurements were conducted on a Bruker model D8 Advance X-ray powder diffractometer using a round zero background single crystal silicon sample stage. CuKα rays were used as a light source in the test, and the scanning parameters are as follows: voltage: 40 kv; current: 40 mA; scanning range: 3°-45°; scanning step size: 0.02°; scanning mode: continuous scanning.
# [4] = listed as Amorphous cariprazine embonate (Example 7)
# [5] = listed as Crystal form A of cariprazine mono-1-hydroxy-2-naphthoate dihydrate (Example 1), dihydrate
# [6] = listed as Crystal form A of cariprazine bis-1-hydroxy-2-naphthoate hydrate (Example 5), hydrate
structure (smiles),measurement,setting,value
"CN(C)C(=O)N[C@H]1CC[C@H](CCN2CCN(c3cccc(Cl)c3Cl)CC2)CC1 [cariprazine hydrochloride, reference compound]",Dissociation in aqueous media (XRPD of residue),[1],dissociated into cariprazine free base
same,Solubility pH 3,[2],12302.45 μg/mL
same,Solubility pH 5,[2],1081.35 μg/mL
same,solubility at 24 h,"[2]; pH 7, aqueous buffer, read-out: Solubility pH 7",9.41 µg/mL
same,solubility at 24 h,"[2]; pH 7.4, aqueous buffer, read-out: Solubility pH 7.4",2.82 µg/mL
same,solubility at 24 h,"[2]; pH 8, aqueous buffer, read-out: Solubility pH 8",0.91 µg/mL
same,solubility at 24 h,"[2]; pH 9, aqueous buffer, read-out: Solubility pH 9",0.35 µg/mL
same,Solubility Water,[2],10935.14 µg/mL
CN(C)C(=O)NC1CCC(CCN2CCN(c3cccc(Cl)c3Cl)CC2)CC1 (centres unmarked) [Crystal form C of cariprazine mono-1-hydroxy-2-naphthoate (E],Solubility pH 3,[2],102.65 μg/mL
same,Solubility pH 4,[2],82.64 μg/mL
same,Solubility pH 5,[2],81.47 μg/mL
same,Solubility pH 6,[2],36.38 μg/mL
same,Solubility pH 7,[2],4.79 μg/mL
same,Solubility pH 7.4,[2],1.53 μg/mL
same,Solubility pH 8,[2],0.51 μg/mL
same,Solubility pH 9,[2],0.31 μg/mL
same,Solubility Water,[2],65.28 µg/mL
"CN(C)C(=O)NC1CCC(CCN2CCN(c3cccc(Cl)c3Cl)CC2)CC1 (centres unmarked) [Amorphous cariprazine embonate, cariprazine embonate]",Solubility pH 3,[2]; [4],151.2 μg/mL
same,Solubility pH 4,[2]; [4],19.1 μg/mL
same,Solubility pH 5,[2]; [4],17.7 μg/mL
same,Solubility pH 6,[2]; [4],19.0 μg/mL
same,Solubility pH 7,[2]; [4],18.8 μg/mL
same,Solubility pH 7.4,[2]; [4],9.9 μg/mL
same,Solubility pH 8,[2]; [4],4.6 μg/mL
same,Solubility pH 9,[2]; [4],4.2 μg/mL
same,Solubility Water,[2]; [4],10.4 µg/mL
CN(C)C(=O)NC1CCC(CCN2CCN(c3cccc(Cl)c3Cl)CC2)CC1 (centres unmarked) [cariprazine mono-1-hydroxy-2-naphthoate dihydrate],"Crystal form results, High temperature",[3],change into the crystal form C of cariprazine mono-1-hydroxy-2-naphthoate
same,Solubility pH 3,[2]; [5],166.74 μg/mL
same,Solubility pH 4,[2]; [5],72.47 μg/mL
same,Solubility pH 5,[2]; [5],72.69 μg/mL
same,Solubility pH 6,[2]; [5],41.95 μg/mL
same,Solubility pH 7,[2]; [5],5.02 μg/mL
same,Solubility pH 7.4,[2]; [5],1.51 μg/mL
same,Solubility pH 8,[2]; [5],0.62 μg/mL
same,Solubility pH 9,[2]; [5],0.45 μg/mL
same,Solubility Water,[2]; [5],60.01 µg/mL
CN(C)C(=O)NC1CCC(CCN2CCN(c3cccc(Cl)c3Cl)CC2)CC1 (centres unmarked) [cariprazine bis-1-hydroxy-2-naphthoate hydrate],Solubility pH 3,[2]; [6],36.75 μg/mL
same,Solubility pH 4,[2]; [6],65.87 μg/mL
same,Solubility pH 5,[2]; [6],20.69 μg/mL
same,Solubility pH 6,[2]; [6],15.24 μg/mL
same,Solubility pH 7,[2]; [6],6.13 μg/mL
same,Solubility pH 7.4,[2]; [6],3.00 μg/mL
same,Solubility pH 8,[2]; [6],1.14 μg/mL
same,Solubility pH 9,[2]; [6],0.94 μg/mL
same,Solubility Water,[2]; [6],55.20 µg/mL
"CN(C)C(=O)NC1CCC(CCN2CCN(c3cccc(Cl)c3Cl)CC2)CC1 (centres unmarked) [Cariprazine (commercially available), Cariprazine, reference compound]",Solubility pH 8,[2],0.4 μg/mL
same,Solubility Water,[2],179.94 µg/mL
